{"source": "patent US20070049538A1", "about": "“METHODS FOR USING CUCURBITACIN COMPOUNDS” (SOUTH DAKOTA STATE UNIVERSITY, priority 2005, published 2007)", "key": {"HepG2 cells [1]": {"test_system": "HepG2 cells", "test": "Cucurbitacins cytotoxicity on HepG2 cells (MTT viability assay)", "format": "cell-based, human", "procedure": "HepG2 (human hepatocellular carcinoma, ATCC) cells were grown in EMEM (Gibco, Grand Island, N.Y.) supplemented with 10% fetal bovine serum (FBS), and 1% penicillin/fungizone mixture (Gibco). Thabrew's optimized procedure (Thabrew et al., J. Pharm. Pharmcol. 49 (1994) 1442, the entire disclosure of which is herein incorporated by reference) was followed. Cells were batch cultured for 10 days, then seeded at concentration of 30,000 cells/well in fresh media in 96-well microtiter plastic plates at 37° C. for a day. Then cells were exposed to different concentrations of cucurbitacins at final volume of 100 μl/well. Five-fold serial dilution of compounds was carried out in the plate for five consecutive wells. After 24 h of incubation with chemicals, live cells were visualized using the MTT viability assay (Promega, Madison, Wis.). The absorbance was measured at 570 nm. Negative (without cells) and positive (without test chemicals) controls were also incubated with each plate. […] At least three reproducible experiments were performed per compound with three replicate wells per concentration.\nCells were challenged with cu-curbitacins at various concentrations for a day and then live cells quantified with MTT dye. This period of time measures exclusively compounds cytotoxicity, while longer incubation time may lead to interference from metabolites."}, "[2]": {"test": "Chromatographic hydrophobicity index (CHI) by RP-HPLC in buffered acetonitrile", "format": "physicochemical", "parameters": "key: CHI = φ0 (isocratic hydrophobicity index), = A·tR + B; ACN % scale"}, "[3]": {"test": "Chromatographic hydrophobicity index (CHI) by RP-HPLC in buffered methanol", "format": "physicochemical", "details": "buffered methanol pH 7.0, Econosil C18 150 mm, Eq. (4)"}, "HepG2 cells [4]": {"test_system": "HepG2 cells", "test": "cells", "details": "read-out: EC50 cytoprotection; Table 7; HepG2 against CCl4 toxicity; estimated", "from_the_text": "Experimental conditions were standardized on silybin. […]\nThe ratio of IC50-to-EC50 (hereafter T/A) is also indicated in this table, which gives the margin between toxic and cytoprotective concentrations."}, "HSC-T6 cells [5]": {"test_system": "HSC-T6 cells", "test": "Serum-driven HSC-T6 proliferation, experiment 1 (4 h challenge, two days drug-free growth)", "format": "cell-based, rat", "details": "HSC-T6, 4 h challenge, then two days drug-free media", "procedure": "The proliferation effect of serum on HSC-T6 cells was optimized and cucurbitacin antiproliferative activity was measured. Serum contains a large number of growth factors, hormones and other nutrients, which help cells to grow and multiply. Several trials were conducted. In experiment 1, cells were challenged with cucurbitacin analogs for 4 h and then cells were grown in drug-free media for two additional days.\nHSC-T6 cells were photographed under phase-contrast microscope to record possible changes in cell morphology during experiment 1. […] We are monitoring specifically the effect of compound on the cells, cell recovery after 4 h challenge, and relative cell proliferation. […] Live cells are quantified at the end of the assay (row 4) with MTT dye.\n(§1) We established several experimental conditions such as 4 hours of incubation time with cucurbitacin, and 2 day cell incubation with fresh media after challenging with cucurbitacin (Exp. 1). Other experiments involved addition of cucurbitacin for 24 hours over starved cells (Exp. 2) vs. proliferating cells (Exp. 3), and one day incubation of cells with fresh media after challenge. […] Because of that, the challenge time was increased to 24 hours (Exp. 2 and 3).\nWe modified this approach. Our assay included a second control (ZC) supplemented with no serum intended to measure cucurbitacin anti-proliferation effect relative to the number of cells generated during challenge instead of the total number of cells present in each well."}, "HSC-T6 cells [6]": {"test_system": "HSC-T6 cells", "test": "Serum-driven HSC-T6 proliferation, experiment 3 (24 h, proliferating cells)", "format": "cell-based, rat", "details": "HSC-T6, 24 h, proliferating cells; read-out: Experiment 3 EC50 (A)", "procedure": "To overcome this problem, the amount of incubation time was increased to 24 h, and cucurbitacin activity measured on starved (Exp. 2) or proliferative (Exp. 3) cells (Table 8). Cells turned quiescent when serum was not supplemented for one day (Exp. 2). Activity of a few compounds was monitored on quiescent cells, and their activity compared to the ones measured on proliferating cells (Exp. 3).\nas §1, with “challenge. The 4 hour incubation period with cucurbitacin triggered anti-proliferation effect. This effect, however, was hindered by a second cycle of cell proliferation during the two-day cell growth period (see silybin, E and I glucosides, and for I-nPr).” for “challenge.”\nIn experiment 3, only 40% of the cells divided. The ratio of EC50 values for exp. 2 and exp. 3 varied between 3.6 and 12.7. This may indicate differential cytotoxicity of silybin and cucurbitacin analogs over quiescent and active stellate cells. In other words, compounds show higher anti-proliferative activity on active cells than on quiescent cells."}, "HSC-T6 cells [7]": {"test_system": "HSC-T6 cells", "test": "Cytotoxicity on HSC-T6 cells (experiment 3)", "format": "cell-based, rat", "details": "read-out: Experiment 3 IC50 (T)", "from_the_text": "Cytotoxicity of all cucurbitacin analogs was additionally measured in experiment 3 (Table 8)."}, "[8]": {"details": "mouse, in vivo; cited from earlier work"}}, "data": [{"smiles": "CC(C)(O)/C=C/C(=O)[C@](C)(O)[C@H]1[C@H](O)C[C@@]2(C)[C@@H]3CC=C4[C@@H](C[C@H](O)C(=O)C4(C)C)[C@]3(C)C(=O)C[C@]12C", "note": "[D, cucurbitacin D]", "values": [{"measurement": "IC50", "setting": "HepG2 cells [1]; Table 4, 24 h incubation, MTT", "value": 77.3, "unit": "µM"}, {"measurement": "IC50", "setting": "HepG2 cells [1]; Table 5", "value": "77.3 ± 8.7", "unit": "µM"}, {"measurement": "IC50", "setting": "HepG2 cells [1]; Table 7", "value": 77.3, "unit": "µM"}, {"measurement": "CHIACN1", "setting": "[2]; buffered acetonitrile pH 7.0, Alltima C18 250 mm, Eq. (2) from isocratic φ0", "value": 58.31}, {"measurement": "CHIACN2", "setting": "[2]; buffered acetonitrile pH 7.0, Eq. (3) calibrated against published CHI", "value": 55.83}, {"measurement": "CHIMeOH", "setting": "[3]", "value": 60.40}, {"measurement": "EC50", "setting": "HepG2 cells [4]", "value": 9, "unit": "µM"}, {"measurement": "EC50", "setting": "HSC-T6 cells [5]", "value": 3.8, "unit": "µM"}, {"measurement": "EC50", "setting": "HSC-T6 cells [6]", "value": 0.07, "unit": "µM"}, {"measurement": "IC50", "setting": "HSC-T6 cells [7]", "value": 26, "unit": "µM"}, {"measurement": "capillary permeability", "setting": "[8]", "value": "enhanced capillary permeability"}]}]}
